Test results: patent US20120149775A1, “METHODS FOR PREVENTING AND IMPROVING SKIN ELASTIC PROPERTY LOSS” (SHISEIDO COMPANY, LTD., priority 2010, published 2012)

What was measured:
Format in all cases: cell-based
mouse 3T3-L1 cell = assay: Mouse fibroblast proliferation (alamar Blue); conditions: 48 hours
Method: The cell employed was a mouse 3T3-L1 cell. This cell was inoculated. at 3×10^4 cells/mL to a commercially available 24-well culture plate (353047, FALCON, Becton, Dickinson and Company Japan), where it was cultured in a commercially available cell culture medium (D-MEM, 11885084, GIBCO, Life Technologies Japan Ltd.) supplemented with 10% bovine serum (16010159, GIBCO, Life Technologies Japan Ltd.). The cell was cultured for about 6 hours in 5% CO2 and saturated water vapor atmosphere at 37° C. Thereafter, the culture medium for culturing the mouse fibroblast was switched to a medium which was the above-mentioned cell culture medium supplemented with 0.5% bovine serum (hereinafter referred to as “mouse fibroblast proliferation evaluation medium”), where the mouse fibroblast was cultured for 12 hours in 5% CO2 and saturated water vapor atmosphere at 37° C. When investigating the effects of saturated and unsaturated fatty acids on the proliferation of the fibroblast, 5 μM and 10 μM palmitic acid (S-33, Wako Pure Chemical Industries, Ltd.), 5 μM and 10 μM oleic acid (07501, Sigma Aldrich Japan K.K.) or 1 μM, 3 μM and 10 μM stearic acid ([…], Sigma Aldrich Japan. K.K.) was added after 12 hours to the mouse fibroblast proliferation evaluation medium), and the fibroblast was cultured for 48 hours in 5% CO2 and saturated water vapor atmosphere at 37° C. As a control, the cell was cultured in a culture medium without these saturated fatty acids and unsaturated fatty acid. […] The cell proliferation rate (%) was calculated as a percentage of the quotient obtained by dividing the fluorescent intensity of the alamar Blue under each experiment condition by the fluorescent intensity in the control group supplemented with no saturated or unsaturated fatty acids.

[1] = tested on: type I collagen α chain gene expression; assay: Type I collagen α chain gene expression in mouse fibroblast (real-time PCR); conditions: for suppressive effect on the gene expression of type I collagen α chain: data not shown
Method: (§1) The cell culture and the addition of palmitic acid were conducted similarly to Example 1. The mouse fibroblast was inoculated to and incubated in a commercially available 12-well culture plate (353043, FALCON, Becton, Dickinson and Company Japan) at 3×10^4 cells/mL. The culture medium was removed using an aspirator, and each well was washed twice with each 2 ml of PBS. An RNA was extracted from each cell in each well using an RNeasy Protect Kit (74104, Qiagen) according to Manufacturer's instructions. A cDNA was produced according to a standard method and used in a real-time PCR. This real-time PCR employed LightCycler (registered trademark) FastStart DNA Master^PLUS SYBR Green I (Catalog No. 03 515 885 001, Roche Diagnostic K.K.). For amplifying type I collagen α chain, elastin, matrix metalloproteinase 13 and 28S rRNA genes, the forward and reverse primers of SEQ ID NO: 1 and 2, SEQ ID NO: 3 and 4, SEQ ID NO: 5 and 6 and SEQ ID NO: 7 and 8, respectively, were employed. The PCR was conducted under a reaction condition involving 1 cycle of 95° C. for 10 minutes and 35 cycles of 95° C. for 15 seconds, 60° C. for 5 seconds and 72° C. for 5 seconds. The expression levels of type I collagen α chain, elastin and matrix metalloproteinase 13 gene were analyzed by using LightCycler Software Ver. 3.5 (Roche Diagnostic K.K.) and normalized on the basis of the expression level of 28S rRNA. The gene expressions level of the type I collagen α chain, elastin and matrix metalloproteinase 13 were calculated as percentages of the quotients obtained by dividing the gene expression rates (%) under each experimental condition by the gene expression levels in the control groups containing no palmitic acid.

elastin gene expression [2] = assay: Elastin gene expression in mouse fibroblast (real-time PCR); conditions: for suppressive effect on the gene expression of elastin: data not shown
Method: as §1

[3] = tested on: matrix metalloproteinase 13 gene expression; assay: Matrix metalloproteinase 13 gene expression in mouse fibroblast (real-time PCR); conditions: for promotive effect on the gene expression of matrix metalloproteinase 13: data not shown
Method: as §1

human fibroblast = assay: Human fibroblast proliferation (alamar Blue); conditions: 5 μM to 30 μM, dependent on concentration (FIG. 7)
Method: Thereafter, alamar Blue (Trade mark, DAL1025, Invitrogen, Life Technologies Japan Ltd.) was added to the culture medium at a final concentration of 10%, and its supernatant was examined for the fluorescent intensity 2 hours later with an excitation wavelength of 544 nm and a fluorescent intensity of 590 nm in accordance with the manufacture's instruction. The cell proliferation rate (%) was calculated as a percentage of the quotient obtained by dividing the fluorescent intensity of the alamar Blue under each experiment condition by the fluorescent intensity in the control group supplemented with no saturated or unsaturated fatty acids. The cell culture, the addition of palmitic acid and the determination of the % of proliferation of the fibroblast were conducted similarly to Example 1. The human fibroblast (CC-2509, Lonza Japan Ltd.) was incubated for 6 hours in a commercially available cell culture medium (D-MEM, 11885084, GIBCO, Life Technologies Japan Ltd.) supplemented with 10% of fetal bovine serum (FBS) (Biowest). Thereafter, the culture medium for incubating the human fibroblast was switched to the cell culture medium supplemented with 0.5% of fetal bovine serum (hereinafter referred to as “human fibroblast proliferation evaluation medium”) and the human fibroblast was incubated at 37° C. and 5% CO2 under a saturated water vapor atmosphere for 12 hours. […]

[4] = tested on: type I collagen α chain gene expression; assay: Type I collagen α chain gene expression in human fibroblast (real-time PCR); conditions: 10 μM and 30 μM, dependent on concentration (FIG. 8)
Method: (§2) The culture medium was removed using an aspirator, and each well was washed twice with each 2 ml of PBS. An RNA was extracted from each cell in each well using an RNeasy Protect Kit (74104, Qiagen) according to Manufacturer's instructions. A cDNA was produced according to a standard method and used in a real-time PCR. This real-time PCR employed LightCycler (registered trademark) FastStart DNA Master^PLUS SYBR Green I (Catalog No. 03 515 885 001, Roche Diagnostic K.K.). […] The expression levels of type I collagen α chain, elastin and matrix metalloproteinase 13 gene were analyzed by using LightCycler Software Ver. […] The gene expressions level of the type I collagen α chain, elastin and matrix metalloproteinase 13 were calculated as percentages of the quotients obtained by dividing the gene expression rates (%) under each experimental condition by the gene expression levels in the control groups containing no palmitic acid. […] The quantification of gene expression was conducted similarly to Example 2. […] The % gene expressions of the type I collagen α chain, elastin and matrix metalloproteinase 1 were calculated as percentages of the quotients obtained by dividing the gene expression levels under each experimental condition by the gene expression levels in the control groups containing no palmitic acid.

elastin gene expression [5] = assay: Elastin gene expression in human fibroblast (real-time PCR); conditions: 3 μM to 30 μM, dependent on concentration (FIG. 9)
Method: as §2

[6] = tested on: matrix metalloproteinase 1 gene expression; assay: Matrix metalloproteinase 1 gene expression in human fibroblast (real-time PCR); conditions: 10 μM and 30 μM, dependent on concentration (FIG. 10)
Method: as §2

mouse fibroblast = assay: Effect of EPA and palmitic acid on fibroblast proliferation (alamar Blue); conditions: palmitic acid at 10 μM alone (FIG. 11)
Method: The cell employed was a mouse 3T3-L1 cell. This cell was inoculated. at 3×10^4 cells/mL to a commercially available 24-well culture plate (353047, FALCON, Becton, Dickinson and Company Japan), where it was cultured in a commercially available cell culture medium (D-MEM, 11885084, GIBCO, Life Technologies Japan Ltd.) supplemented with 10% bovine serum (16010159, GIBCO, Life Technologies Japan Ltd.). The cell was cultured for about 6 hours in 5% CO2 and saturated water vapor atmosphere at 37° C. Thereafter, the culture medium for culturing the mouse fibroblast was switched to a medium which was the above-mentioned cell culture medium supplemented with 0.5% bovine serum (hereinafter referred to as “mouse fibroblast proliferation evaluation medium”), where the mouse fibroblast was cultured for 12 hours in 5% CO2 and saturated water vapor atmosphere at 37° C. […] The cell proliferation rate (%) was calculated as a percentage of the quotient obtained by dividing the fluorescent intensity of the alamar Blue under each experiment condition by the fluorescent intensity in the control group supplemented with no saturated or unsaturated fatty acids. […]

CCCCCCCC/C=C\CCCCCCCC(=O)O [oleic acid]
cell proliferation (mouse 3T3-L1 cell; 5 μM and 10 μM, vs control (FIG. 2)): statistically significant reduction | suppressive effect on the gene expression of type I collagen α chain [1]: did not have a suppressive effect | suppressive effect on the gene expression of elastin (elastin gene expression [2]): did not have a suppressive effect | promotive effect on the gene expression of matrix metalloproteinase 13 [3]: did not have

CCCCCCCCCCCCCCCC(=O)O [palmitic acid]
cell proliferation (mouse 3T3-L1 cell; 10 μM, vs control (FIG. 1)): statistically significant reduction | type I collagen α chain gene expression ([1]; 10 μM, vs control (FIG. 4)): statistically significant reduction | elastin gene expression (elastin gene expression [2]; 10 μM, vs control (FIG. 5)): statistically significant reduction | matrix metalloproteinase 13 gene expression ([3]; 10 μM, vs control (FIG. 6)): statistically significant increase | cell proliferation (human fibroblast): statistically significant reduction | type I collagen α chain gene expression [4]: statistically significant reduction | elastin gene expression (elastin gene expression [5]): statistically significant reduction | matrix metalloproteinase 1 gene expression [6]: statistically significant increase | cell proliferation (mouse fibroblast): reduced markedly

CCCCCCCCCCCCCCCCCC(=O)O [stearic acid]
cell proliferation (mouse 3T3-L1 cell; 1 μM to 10 μM, vs control (FIG. 3)): no statistically significant reduction | suppressive effect on the gene expression of type I collagen α chain [1]: did not have a suppressive effect | suppressive effect on the gene expression of elastin (elastin gene expression [2]): did not have a suppressive effect | promotive effect on the gene expression of matrix metalloproteinase 13 [3]: did not have
